How the values were obtained:
Type in all cases: functional
Details in all cases: 120 h
Tetranychus urticae [1] = assay: Acaricidal activity against Tetranychus urticae (two-spotted spider mite) in kidney bean leaf assessed as mortality at 500 ppm at 25 degC measured after 5 days
Tetranychus urticae [2] = assay: Acaricidal activity against Tetranychus urticae (two-spotted spider mite) in kidney bean leaf assessed as mortality at 50 ppm at 25 degC measured after 5 days
Tetranychus urticae [3] = assay: Acaricidal activity against Tetranychus urticae (two-spotted spider mite) in kidney bean leaf assessed as mortality at 200 ppm at 25 degC measured after 5 days
Tetranychus urticae [4] = assay: Acaricidal activity against Tetranychus urticae (two-spotted spider mite) in kidney bean leaf assessed as mortality at 12.5 ppm at 25 degC measured after 5 days
Tetranychus urticae [5] = assay: Acaricidal activity against Tetranychus urticae (two-spotted spider mite) in kidney bean leaf assessed as mortality at 3.1 ppm at 25 degC measured after 5 days

Row | Compound | mortality at 500 ppm (Tetranychus urticae [1]) [%] | mortality at 50 ppm (Tetranychus urticae [2]) [%] | mortality at 200 ppm (Tetranychus urticae [3]) [%] | mortality at 12.5 ppm (Tetranychus urticae [4]) [%] | mortality at 3.1 ppm (Tetranychus urticae [5]) [%]
1 | CCc1nn(C)c(C(=O)NCc2ccc([S+](C)[O-])cc2)c1Cl (stereo not given) | 0 | 0 | 0 | – | –
2 | Cn1ncc(Cl)c1C(=O)NCc1ccc(C(C)(C)C)cc1 | 100 | 30 | 100 | 0 | 0
3 | CCc1nn(C)c(C(=O)NCc2ccc(C(F)(F)F)cc2)c1Cl | 100 | 30 | 80 | – | –
4 | CCOc1c(C)nn(C)c1C(=O)NCc1ccc(C(C)(C)C)cc1 | 100 | 0 | 100 | 0 | 0
5 | Cc1nn(-c2ccccc2)c(C(=O)NCc2ccc(C(C)(C)C)cc2)c1Cl | 0 | 0 | 0 | – | –
6 | CCCCc1ccc(CNC(=O)c2c(Cl)c(CC)nn2C)cc1 | 100 | 100 | 100 | 80 | 0
7 | CC(C)Cc1nn(C)c(C(=O)NCc2ccc(C(C)(C)C)cc2)c1Cl | 0 | 0 | 0 | 0 | 0
8 | Cc1nn(C)c(C(=O)NCc2cccc(C(F)(F)F)c2)c1Cl | 0 | 0 | 0 | – | –
9 | Cc1nn(C(C)C)c(C(=O)NCc2ccc(C(C)(C)C)cc2)c1Cl | 0 | 0 | 0 | – | –
10 | CCc1nn(C)c(C(=O)NCc2ccc(C3CC3)cc2)c1Cl | 30 | 0 | 0 | 0 | 0
11 | CCCc1ccc(CNC(=O)c2c(Cl)c(CC)nn2C)cc1 | 100 | 0 | 30 | 0 | 0
12 | CCc1nn(C)c(C(=O)NCc2ccc(S(C)(=O)=O)cc2)c1Cl | 0 | 0 | 0 | – | –
13 | CCOc1ccc(CNC(=O)c2c(Cl)c(CC)nn2C)cc1 | 0 | 0 | 0 | – | –
14 | Cc1nn(C(F)F)c(C(=O)NCc2ccc(C(C)(C)C)cc2)c1Cl | 0 | 0 | 0 | – | –
15 | CCn1nc(C)c(Cl)c1C(=O)NCc1ccc(C(C)(C)C)cc1 | 0 | 0 | 0 | – | –
16 | CCCCOc1ccc(CNC(=O)c2c(Cl)c(CC)nn2C)cc1 | 100 | 30 | 80 | – | –
17 | Cc1nn(C)c(C(=O)NC(c2ccccc2)c2ccccc2)c1Br | 0 | 0 | 0 | – | –
18 | CCc1nn(C)c(C(=O)NCc2ccc([N+](=O)[O-])cc2)c1Cl | 0 | 0 | 0 | – | –
19 | Cc1nn(Cc2ccccc2)c(C(=O)NCc2ccc(C(C)(C)C)cc2)c1Cl | 0 | 0 | 0 | – | –
20 | Cc1nn(C)c(C(=O)NC(C)(C)C)c1Br | 0 | 0 | 0 | – | –
21 | Cc1nn(C)c(C(=O)OCc2ccc(C(C)(C)C)cc2)c1Br | 0 | 0 | 0 | – | –
22 | CCCOc1ccc(CNC(=O)c2c(Cl)c(CC)nn2C)cc1 | 100 | 0 | 80 | – | –
23 | CCOCc1ccc(CNC(=O)c2c(Cl)c(CC)nn2C)cc1 | 100 | 0 | 80 | – | –

Row | Compound | mortality at 500 ppm (Tetranychus urticae [1]) [%] | mortality at 50 ppm (Tetranychus urticae [2]) [%] | mortality at 200 ppm (Tetranychus urticae [3]) [%] | mortality at 12.5 ppm (Tetranychus urticae [4]) [%] | mortality at 3.1 ppm (Tetranychus urticae [5]) [%]
24 | Cc1nn(C)c(C(=O)SCc2ccc(C(C)(C)C)cc2)c1Cl | 30 | 0 | 0 | – | –
25 | CCOCCOc1ccc(CNC(=O)c2c(Cl)c(CC)nn2C)cc1 | 80 | 0 | 30 | – | –
26 | CCc1nn(C)c(C(=O)NCc2ccc(OCC(F)(F)F)cc2)c1Cl | 80 | 0 | 30 | – | –
27 | Cc1nn(C)c(C(=O)NCc2ccc(C(F)(F)F)cc2)c1Cl | 100 | 80 | 100 | – | –
28 | CCCCn1nc(C)c(Cl)c1C(=O)NCc1ccc(C(C)(C)C)cc1 | 0 | 0 | 0 | – | –
29 | CCc1nn(C)c(C(=O)NCc2ccc(OC)cc2)c1Cl | 0 | 0 | 0 | – | –
30 | Cc1nn(C)c(C(=O)NCc2ccccc2C(F)(F)F)c1Cl | 0 | 0 | 0 | – | –
31 | Cc1nn(C)c(C(=O)NCc2ccccc2)c1Br | 0 | 0 | 0 | – | –
32 | Cc1nn(C)c(C(=O)Nc2ccc(C(C)(C)C)cc2)c1Br | 0 | 0 | 0 | – | –
33 | Cc1nn(C)c(C(=O)NC(C)(C)c2ccccc2)c1Br | 0 | 0 | 0 | – | –
34 | Cc1nn(C)c(C(=S)NCc2ccc(C(C)(C)C)cc2)c1Cl | 80 | 0 | 30 | – | –
35 | Cc1nn(C)c(C(=O)NC(C)c2ccccc2)c1Br (stereo not given) | 0 | 0 | 0 | – | –
36 | Cc1nn(C)c(C(=O)N(C)Cc2ccc(C(C)(C)C)cc2)c1Cl | 0 | 0 | 0 | – | –
37 | CCc1nn(C)c(C(=O)NCc2ccc(OC(C)C)cc2)c1Cl | 80 | 0 | 30 | – | –
38 | CCc1nn(C)c(C(=O)NCc2ccc(C#N)cc2)c1Cl | 0 | 0 | 0 | – | –
39 | Cc1nn(C)c(C(=O)NC(C)c2ccc(C(C)(C)C)cc2)c1Br (stereo not given) | 100 | 80 | 100 | – | –
40 | CCc1nn(C)c(C(=O)NCc2ccc(Br)cc2)c1Cl | 0 | 0 | 0 | – | –
41 | CCc1nn(C)c(C(=O)NCc2ccc(OC(F)F)cc2)c1Cl | 80 | 0 | 30 | – | –
42 | CCCNc1ccc(CNC(=O)c2c(Cl)c(CC)nn2C)cc1 | 80 | 0 | 0 | – | –
43 | CCc1nn(C)c(C(=O)NCc2ccc(N)cc2)c1Cl | 0 | 0 | 0 | – | –
44 | Cc1nn(C)c(C(=O)NC(c2ccccc2)C(C)C)c1Cl (stereo not given) | 0 | 0 | 0 | – | –
45 | Cc1n[nH]c(C(=O)NCc2ccc(C(C)(C)C)cc2)c1Cl | 0 | 0 | 0 | – | –
46 | CCc1nn(C)c(C(=O)NCc2ccc(SC)cc2)c1Cl | 100 | 0 | 80 | – | –

Reference: ChEMBL document CHEMBL3045921, “Synthesis and Acaricidal Activity of Pyrazole-5-carboxamide Derivatives” (1991)
